Source: ChEMBL document CHEMBL2380252, “Optimized method of G-protein-coupled receptor homology modeling: its application to the discovery of novel CXCR7 ligands” (J Med Chem, 2013)

These molecules were tested against T1, Atypical chemokine receptor 3 (Homo sapiens, UniProt P25106) (assay: Displacement of [125I]SDF-1alpha from CXCR7 (unknown origin) expressed in CHO cells after 1 hr by TopCount scintillation counting analysis).
Assay type: cell-based

T1 sequence (P25106 whole entry): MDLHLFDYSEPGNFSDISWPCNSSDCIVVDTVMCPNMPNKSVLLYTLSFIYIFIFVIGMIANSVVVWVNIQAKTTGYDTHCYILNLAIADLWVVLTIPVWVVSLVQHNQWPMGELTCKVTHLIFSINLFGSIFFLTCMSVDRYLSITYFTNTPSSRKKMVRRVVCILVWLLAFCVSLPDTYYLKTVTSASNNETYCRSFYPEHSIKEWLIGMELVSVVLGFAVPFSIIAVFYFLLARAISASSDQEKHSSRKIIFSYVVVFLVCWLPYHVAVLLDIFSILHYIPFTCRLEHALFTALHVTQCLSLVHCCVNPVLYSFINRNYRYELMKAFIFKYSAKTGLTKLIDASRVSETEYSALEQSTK

Structure (SMILES)	IC50
CCN1CCc2nc3sc(C(=O)N4CCc5ccccc5C4)c(N)c3cc2C1	10 µM
CCC(C(=O)NCCCN(CC)Cc1ccccc1)n1nc(C)c2sc3ccccc3c2c1=O (stereo not given)	2.78 µM
CN(CCCNC(=O)c1cc2c(=O)n(C)c3ccccc3c2s1)Cc1ccccc1	2.21 µM
Cc1cc(OCC(=O)NC2CCN(Cc3ccccc3)CC2)c2c(C)cc(=O)oc2c1	1.49 µM
CC1CCCCN1CCNC(=O)c1cc2c(s1)-c1ccc(Cl)cc1SC2 (stereo not given)	5.27 µM
CN(C)c1ccc(/C=C2\SC(N3CCN(CCO)CC3)=NC2=O)cc1	5.36 µM
CN(Cc1ccccc1NC(=O)/C=C/c1cnn(-c2ccccc2)c1)C1CCCCC1	5.84 µM
CCN1CCCC1CNC(=O)CN1C(=O)/C(=C/c2ccccc2F)Sc2ccccc21 (stereo not given)	6.19 µM
CCN1CCCC1CNC(=O)c1ccc(-n2ccc3ccccc32)s1 (stereo not given)	6.75 µM
Cc1ccc2[nH]c(=O)c3cc(C(=O)NCCN4CCCCCC4)sc3c2c1	7 µM
CC1CCCCN1CC(O)COc1ccc2c3c(c(=O)oc2c1)CCC3 (stereo not given)	8.02 µM
CCOc1cc(NC(=S)NCCCN(C)C)c(OCC)cc1NC(=O)c1ccc(C)cc1	9.79 µM
O=C(NCCCN(Cc1ccco1)C1CCCC1)c1cc2c(s1)-c1ccccc1SC2	11.4 µM
CC1CCCN(CC(O)COc2ccc3c4c(c(=O)oc3c2)CCC4)C1 (stereo not given)	1.29 µM
COc1ccccc1C(CNC(=O)c1cc(-c2ccc(Br)cc2)on1)N1CCC(C)CC1 (stereo not given)	1.87 µM
CCC1CCCCN1CCCNC(=O)CSc1cc(=O)n(C)c2ccc(Cl)cc12 (stereo not given)	2.16 µM
Cc1ccc2c(c1)-c1onc(C(=O)NCCN3CCCCC3C)c1CO2 (stereo not given)	2.64 µM
Cc1ccc2c(c1)-c1onc(C(=O)NCCCN3CC(C)CC(C)C3)c1CO2 (stereo not given)	2.92 µM
O=C(c1ccc(N2CCc3ccccc32)s1)N1CCC(N2CCCCC2)CC1	3.2 µM
CCCCN(CC)CCNC(=O)c1ccc(N2CCc3ccccc32)s1	3.89 µM
Cc1ccc(C(=O)Nc2ncc(CN3CCC(c4ccccc4)C3)s2)cc1 (stereo not given)	4.35 µM

These molecules were tested against T1, Atypical chemokine receptor 3 (assay: Binding affinity to CXCR7 (unknown origin)).

Structure (SMILES)	IC50
O=C(c1cc2c(s1)-c1ccc(Cl)cc1SC2)N1CCC(N2CCCCC2)CC1	6.33 µM
COc1c(C)cc2cccnc2c1N1CCCN(C(C(=O)N2CCNCC2)c2csc(C(C)C)n2)CC1 (stereo not given)	< 0.1 µM
COc1ccc2c(c1)c1c(cnn1CC(=O)NCCN(C)C1CCCCC1)c(=O)n2C	< 1 µM
CCc1ccc(NC(=O)CSc2nc3ccccc3c(=O)n2CCCC(=O)NCN2CCOCC2)cc1	4.74 µM
